Measured values reported in patent US5891895A, “Hydroxypyridine derivatives their production and use” (Takeda Chemical Industries, Ltd., priority 1996, dated 1999).

What was measured:
coronary blood flow = assay: Coronary blood flow-increasing effect in anesthetized dogs (administration into the coronary artery); format: in vivo; conditions: 30 μg/dog into the coronary artery, anesthetized beagle dogs
Method: Coronary blood flow-increasing effect in anesthetized dogs (administration into the coronary artery)
Method: After beagle dogs (10 to 12 kg) were anesthetized with pentobarbital, the chest was opened under artificial respiration. A bypass fitted with an electromagnetic flowmeter (Nihon Kohden) was prepared between the left coronary artery and the left carotid artery, and the coronary blood flow was measured. Each test compound was dissolved in 50% polyethylene glycol in physiological saline, 50% DMF in physiological saline or DMF for administration (30 μg/dog) into the coronary artery through the bypass.
Results: The greatest percentage change (% of basal flow) and duration (expressed as half-time (T1/2) in which the effect is reduced to half) are shown in Table 14.

rat aorta preparations [1] = assay: Vasorelaxant effect on rat aorta preparations: contractions induced by tetraethyl ammonium chloride (TEA) and barium chloride (BaCl2); format: cell-based, Male Wistar rats; conditions: TEA (30-45 mM) and BaCl2 (0.3 mM), read-out: constriction inhibitory ratio
Method: (§1) Vasorelaxant effect on rat aorta preparations
Effects on contractions induced by tetraethyl ammonium chloride (TEA) and barium chloride (BaCl2)
(§2) Method: Male Wistar rats (10 to 13 weeks old) were used. After exsanguination, the aorta was isolated. Aortic rings (5 mm long) were prepared and then suspended in a bath filled with oxygenated (95% O2 -5% CO2) Krebs solution (36° C.). One end of each ring preparation was fixed and the other end was connected to a tension transducer (Nihon Kohden), and tension of the ring preparation was measured. After an equilibration period of one hour, TEA (30-45 mM) and BaCl2 (0.3 mM) were added in the bath to produce vasoconstriction. After the contractions reached a steady state (after about 15 min.), each test compound was added and its relaxant effect was investigated.

rat aorta preparations [2] = assay: Vasorelaxant effect on rat aorta preparations: constriction induced by potassium chloride (KCl); format: cell-based, Male Wistar rats; conditions: KCl (80 mM), read-out: constriction inhibitory ratio
Method: as §2, §1
Effect on constriction induced by potassium chloride (KCl)
Method: This experiment was performed using KCl (80 mM) instead of TEA and BaCl2 used in Experimental Example 1. Apart from this, the procedures were substantially the same as in Experimental Example 1.

[3] = system: normotensive rats (Wistar-Kyoto rats (WKY)); assay: Antihypertensive effect in rats (WKY); format: in vivo; conditions: 0.3 mg/kg orally
Method: (§3) Antihypertensive effect in rats
(§4) Method: 23 to 27-week-old spontaneously hypertensive rats (SHR) or normotensive rats (Wistar-Kyoto rats (WKY)) were anesthetized with pentobarbital (60 mg/kg, i.p.). A polyethylene catheter filled with physiological saline containing 20% heparin was inserted into the left femoral artery and left in place. The other end of the catheter was tunneled subcutaneously to the back and fixed there. After one night, the animals were used in the experiment in the fasting state. Blood pressure was recorded on an ink-writing recorder through the arterial catheter via a pressure transducer. Blood pressure was estimated from flood pressure waves recorded on the recorder. After the blood pressure was stabilized, the test compounds (vehicle (0.5% methylcellulose, […]) or Compound 16 (0.3 mg/kg)) were administered orally.
(§5) Results: The changes in blood pressure and heart rate after administration of the test compounds are given as % of pretreatment basal values (percentage changes) in FIGS. 1 and 2. All values are presented as means±standard error.

[4] = system: spontaneously hypertensive rats (SHR); assay: Antihypertensive effect in rats (SHR); format: in vivo; conditions: 0.3 mg/kg orally
Method: as §3, §4, §5

Structure (SMILES)	duration (T1/2), half-time in which the effect is reduced to half (coronary blood flow) [min]	greatest percentage change (coronary blood flow)	inhibition at 0.1 µM (rat aorta preparations [1]) [%]	inhibition at 0.3 µM (rat aorta preparations [1]) [%]	inhibition at 0.1 µM (rat aorta preparations [2]) [%]	inhibition at 0.3 µM (rat aorta preparations [2]) [%]	inhibition at 1 µM (rat aorta preparations [1]) [%]	inhibition at 1 µM (rat aorta preparations [2]) [%]	effect on blood pressure [3]	effect on heart rate [3]	duration of antihypertensive effect [4]	effect on heart rate [4]	onset of antihypertensive effect after administration [4] [h]	greatest change in blood pressure (antihypertensive effect) ([4]; % of pretreatment basal values) [%]
CC(C)(C)O/N=C(/c1cccc(Br)c1)c1ncccc1O [Compound 1, (Z)-2-(3-bromo-α-t-butoxyiminobenzyl)-3-hydroxypyridine]	6.7	133 % of basal flow	57	59	0	0	–	–	–	–	–	–	–	–
CC(C)(C)O/N=C(/c1cc(Cl)cc(Cl)c1)c1ncccc1O [Compound 13, (Z)-2-[α-(t-butoxyimino)-3,5-dichlorobenzyl]-3-hydroxypyridine]	–	–	–	21	–	–	53	4	–	–	–	–	–	–
CC(C)(C)O/N=C(/c1ccc(F)c(Br)c1)c1ncccc1O [Compound 16, (Z)-2-(3-bromo-α-t-butoxyimino-4-fluorobenzyl)-3-hydroxypyridine]	43.5	136 % of basal flow	87	–	4	–	–	–	no effect	no effect	long duration	little effect	2	18
CC(C)(C)O/N=C(/c1ccc(Cl)cc1)c1c(O)ccc[n+]1[O-] [Compound 7, (Z)-2-[α-(t-butoxyimino)-4-chlorobenzyl]-3-hydroxypyridine N-oxide]	18.6	71 % of basal flow	–	2	–	–	72	0	–	–	–	–	–	–
CC(C)(C)O/N=C(/c1cccc(C(F)(F)F)c1)c1ncccc1O [Compound 21, (Z)-2-[α-(t-butoxyimino)-3-trifluoromethylbenzyl]-3-hydroxypyridine]	–	–	–	45	–	1	100	8	–	–	–	–	–	–
CC(C)(C)O/N=C(/c1cccc([N+](=O)[O-])c1)c1ncccc1O [Compound 23, (Z)-2-[α-(t-butoxyimino)-3-nitrobenzyl]-3-hydroxypyridine]	5.3	134 % of basal flow	4	56	–	0	76	0	–	–	–	–	–	–
CC(C)(C)N/N=C(\c1cccc(Br)c1)c1ncccc1O [Compound 27, (E)-2-(3-bromo-α-t-butylhydrazinobenzyl)-3-hydroxypyridine]	74.6	77 % of basal flow	25	100	0	0	–	–	–	–	–	–	–	–
CC(C)(C)O/N=C(/c1ccc(Cl)c(Cl)c1)c1c(O)ccc[n+]1[O-] [Compound 11, (Z)-2-[α-(t-butoxyimino)-3,4-dichlorobenzyl]-3-hydroxypyridine N-oxide]	30.5	66 % of basal flow	–	49	–	–	63	0	–	–	–	–	–	–
CC(C)(C)O/N=C(/c1cccc(Br)c1)c1c(O)ccc[n+]1[O-] [Compound 3, (Z)-2-(3-bromo-α-t-butoxyiminobenzyl)-3-hydroxypyridine 1-oxide]	24.4	155 % of basal flow	–	47	–	0	97	2	–	–	–	–	–	–
